The values that follow come from patent US20050003502A1 (priority 2000, published 2005).

Molecules are shown by their SMILES.

In experiment [1] the target is T1, human topoisomerase I (topo70) in covalent complex with duplex 22 mer DNA (Homo sapiens, UniProt P11387).
T1 construct: residues 175 to 765 of the natural protein plus an N-terminal initiating methionine; initiating methionine (one added Met before residue 175) (N); made in house; host or cells: insect cells (recombinant baculovirus, pFastBac-topo70 wt)
T1 sequence (P11387 175-765): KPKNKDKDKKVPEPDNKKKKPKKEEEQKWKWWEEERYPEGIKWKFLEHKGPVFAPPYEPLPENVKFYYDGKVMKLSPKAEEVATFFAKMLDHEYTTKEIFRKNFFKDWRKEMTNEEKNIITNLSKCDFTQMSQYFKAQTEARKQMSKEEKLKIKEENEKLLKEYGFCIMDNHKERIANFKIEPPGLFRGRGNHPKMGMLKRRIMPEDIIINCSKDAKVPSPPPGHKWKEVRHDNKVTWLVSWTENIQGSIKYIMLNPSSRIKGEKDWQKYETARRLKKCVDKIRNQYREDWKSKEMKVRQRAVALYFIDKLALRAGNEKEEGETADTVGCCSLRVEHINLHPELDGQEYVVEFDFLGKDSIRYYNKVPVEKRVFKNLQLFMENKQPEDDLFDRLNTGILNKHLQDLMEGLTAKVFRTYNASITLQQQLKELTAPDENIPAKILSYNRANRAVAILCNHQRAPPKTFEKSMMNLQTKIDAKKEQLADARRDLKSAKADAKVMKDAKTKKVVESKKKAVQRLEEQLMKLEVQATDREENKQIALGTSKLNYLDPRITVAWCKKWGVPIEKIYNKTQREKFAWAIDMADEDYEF
As to the kind of experiment: X-ray crystal structure of ternary topo70-DNA-compound complex. The class given is binding.

In another experiment the test system is Topo I. The settings on record: Hsiang et al., Cancer Res 1989; cited from earlier work.
The conditions of experiment [2]: Giovanella et al., Science 1989; cited from earlier work.
The target of experiment [3] is T2, reconstituted "linker-less" human Topo I (Homo sapiens, UniProt P11387).
T2 sequence (P11387 175-659 limits assumed): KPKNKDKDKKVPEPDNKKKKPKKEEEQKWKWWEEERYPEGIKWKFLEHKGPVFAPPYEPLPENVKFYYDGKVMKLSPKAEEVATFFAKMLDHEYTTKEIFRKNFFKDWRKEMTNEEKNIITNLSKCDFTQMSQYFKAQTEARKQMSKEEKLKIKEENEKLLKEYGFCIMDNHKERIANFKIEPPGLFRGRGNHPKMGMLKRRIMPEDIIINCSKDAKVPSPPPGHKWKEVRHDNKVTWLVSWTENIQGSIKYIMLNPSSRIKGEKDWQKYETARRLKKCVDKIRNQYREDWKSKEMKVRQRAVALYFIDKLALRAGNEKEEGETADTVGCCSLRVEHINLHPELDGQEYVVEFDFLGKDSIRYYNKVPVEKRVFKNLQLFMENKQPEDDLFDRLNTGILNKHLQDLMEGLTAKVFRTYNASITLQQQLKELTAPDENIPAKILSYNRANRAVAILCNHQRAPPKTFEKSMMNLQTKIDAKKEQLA
T2 sequence (P11387 713-765 limits assumed): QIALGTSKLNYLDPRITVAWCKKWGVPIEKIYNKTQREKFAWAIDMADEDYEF
The settings on record: Stewart et al., J. Biol. Chem. 1999; cited from earlier work.

The mark [4] stands for this setting: unrestrained full matrix refinement of occupancy factors, standard uncertainty 7%.

`CCOc1ccc(-c2nc3ccc(-c4nc5ccc(N6CCN(C)CC6)cc5[nH]4)cc3[nH]2)cc1` [Hoecsht-33342]: in experiment [1] (Form 11 structure), the “binding site relative to camptothecin” value is “do not bind at the same site as camptothecin”.

`CC[C@@](O)(C(=O)[O-])c1cc2n(c(=O)c1CO)Cc1cc3ccccc3nc1-2.[Na+]` [sodium carboxylate form of camptothecin]: in the experiment on Topo I, the “Topo I inhibitory activity in vitro” value is on record as “does have Topo I inhibitory activity in vitro”. Moreover, the “activity in in vivo cell killing assays” value in experiment [2] is given as “does have”.

For the molecule `CC[C@@]1(O)C(=O)OCc2c1cc1n(c2=O)Cc2cc3c(CN(C)C)c(O)ccc3nc2-1` [topotecan], the “binding mode in the crystal structure” value in experiment [1] (Form 9-TTC, Form 9-AG260, Form 10 structures) is reported as “intercalate at the site of DNA cleavage”. Moreover, in experiment [1] (setting [4]), the “occupancy of closed lactone form in the bound complex” value is recorded as 63% and the “occupancy of open carboxylate form in the bound complex” value is 37%. Moreover, the “relaxation-inhibition effect on linker-less Topo I” value in experiment [3] was “resistant to the relaxation-inhibition effect”.
